Laboratory results from patent US7700106B2, “Therapeutic agent for ulcerative colitis” (priority 2001, dated 2010).

Assays:
[1] = test system: mice
[2] = test system: Fusobacterium varium; experiment: Susceptibility of Fusobacterium varium to antimicrobial agents; assay type: cell-based
Text: The susceptibility to Fusobacterium varium in antimicrobial agents was examined.

CCCC(=O)O [butyric acid]
colonic lesions after enema ([1]; mice, twenty-four hours after enema): colonic ulcers with crypt abscesses, inflammatory cell infiltration and apoptotic changes | lesion after injection into the rectum ([1]; mouse, injected into the rectum): a lesion similar to ulcerative colitis was induced

CC[C@H]1OC(=O)[C@H](C)[C@@H](O[C@H]2C[C@@](C)(OC)[C@@H](O)[C@H](C)O2)[C@H](C)[C@@H](O[C@@H]2O[C@H](C)C[C@H](N(C)C)[C@H]2O)[C@](C)(OC)C[C@@H](C)C(=O)[C@H](C)[C@@H](O)[C@]1(C)O [clarithromycin]
resistance of Fusobacterium varium to antimicrobial agent [2]: resistant

CC[C@H]1OC(=O)[C@H](C)[C@@H](O[C@H]2C[C@@](C)(OC)[C@@H](O)[C@H](C)O2)[C@H](C)[C@@H](O[C@@H]2O[C@H](C)C[C@H](N(C)C)[C@H]2O)[C@](C)(O)C[C@@H](C)C(=O)[C@H](C)[C@@H](O)[C@]1(C)O [erythromycin]
resistance of Fusobacterium varium to antimicrobial agent [2]: resistant

[H]/N=C(/N)N[C@H]1[C@H](O)[C@@H](O)[C@H](O[C@@H]2O[C@@H](C)[C@](O)(C=O)[C@H]2O[C@@H]2O[C@@H](CO)[C@H](O)[C@@H](O)[C@@H]2NC)[C@@H](N/C(N)=N\[H])[C@@H]1O [streptomycin]
resistance of Fusobacterium varium to antimicrobial agent [2]: resistant

gentamycin
resistance of Fusobacterium varium to antimicrobial agent [2]: resistant
